Common to all, as to assay type: cell-based
One assay concerns the target T1, OR51E1 (Homo sapiens, UniProt Q8TCB6).
T1 construct: expressed in transfected cells; host or cells: HEK293
T1 sequence (Q8TCB6 1-318): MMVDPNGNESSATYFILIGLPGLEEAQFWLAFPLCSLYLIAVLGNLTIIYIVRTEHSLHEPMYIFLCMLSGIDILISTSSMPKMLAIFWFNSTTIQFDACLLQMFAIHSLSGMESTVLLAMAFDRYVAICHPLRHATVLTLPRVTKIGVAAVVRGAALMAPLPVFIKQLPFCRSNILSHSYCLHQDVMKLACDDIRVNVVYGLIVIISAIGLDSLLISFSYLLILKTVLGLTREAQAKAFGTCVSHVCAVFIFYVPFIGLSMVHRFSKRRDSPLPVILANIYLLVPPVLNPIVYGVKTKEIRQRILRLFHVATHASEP
Put plainly: Luciferase reporter gene assay, OR51E1 expressed in HEK293 cells. The conditions noted are these: for Inhibition ratio of OR51E1 response: response to hexanoic acid, test substance added together with hexanoic acid, HEK293. Here is the method:
(§1) Cloning of human olfactory receptors was performed based on the sequence information registered in GenBank, through PCR with human genomic DNA female (G1521: Promega) as a template. Each of the genes amplified through PCR was inserted into a pENTR vector (Invitrogen) according to an instruction manual. Then, the gene-inserted vector was digested with NotI and AscI, and the obtained fragments were inserted into NotI and AscI sites located downstream of the Flag-Rho tag sequence in the pME18S vector.
(§2) Each of the 350 types of human olfactory receptors was expressed in HEK293 cells. A reaction solution having a composition shown in Table 2 was prepared on a clean bench, and left to stand for 15 minutes. The solution was dispensed to each well of a 96-well plate (BD). Subsequently, […] cells (100 μL, 3×10^5 cells/cm^2) were seeded in each well and cultured for 24 hours in an incubator at 37° C. and under 5% CO2 conditions.
(§3) The olfactory receptor expressed in HEK293 cell was conjugated with cell-intrinsic Gas to activate adenylate cyclase, and thereby the level of intracellular cAMP was increased. For the measurement of the response to odor in this study, the luciferase reporter gene assay was used, in which an increase in the amount of intracellular cAMP was monitored by using the emission value originating from firefly luciferase gene (fluc2P-CRE-hygro) as an indicator. Furthermore, a gene product obtained by fusing renilla luciferase gene in the downstream of CMV promoter (hRluc-CMV) was simultaneously introduced, and this was used as an internal standard for correcting an error in the transgenesis efficiency or the number of cells. The medium was removed from the culture prepared in the above-described section 3) by using a Pipetman, and 75 μl of a solution containing an odor substance (1 mM hexanoic acid or 300 μM nonanoic acid) prepared in CD293 medium (Invitrogen) was added thereto. The cells were cultured for 4 hours in a CO2 incubator, and the luciferase gene was sufficiently expressed in the cells. For the measurement of luciferase activity, the measurement was carried out by using a Dual-Glo™ luciferase assay system (Promega) according to the operation manual of the product. A value calculated by dividing the emission value, derived from a firefly luciferase induced by the stimulation with an odor substance, by the emission value in cells that were not-stimulated with an odor substance, was designated as a fold increase, and used as an index of response intensity.
(§4) OR2W1, OR10A6, OR51E1, OR51I2, and OR51L1 were respectively expressed in HEK293 cells by the same method as that used in Example 1, and a luciferase assay was carried out. In the luciferase assay, hexanoic acid was used as the odorous substance, and test substances were added together with hexanoic acid. The response of the olfactory receptors to hexanoic acid was measured, and a decrease in the receptor response to the addition of test substances was evaluated.
(§5) The inhibition ratios of the receptor response to test substances were calculated as follows. The emission value (Y) obtained from the cells in which the same receptors were introduced but no odor stimulation was conducted, was subtracted from the emission value derived from firefly luciferase (X) induced by odor stimulation with hexanoic acid alone. Similarly, the emission value (Y) obtained from the cells in which no odor stimulation was conducted, was subtracted from the emission value (Z) caused by stimulation with a mixture of hexanoic acid and a test substance. By the following calculation formula, the inhibitory activity of the test substance to receptor response was calculated based on the increment of the emission value (X−Y) caused by stimulation of hexanoic acid alone. Multiple independent experiments were performed in duplicate, and the average of each experiment was obtained. Inhibition ratio (%)={1−(Z−Y)/(X−Y)}×100 […]

The target of a further assay is T2, OR51L1 (Homo sapiens, UniProt Q8NGJ5).
T2 construct: expressed in transfected cells; host or cells: HEK293
T2 sequence (Q8NGJ5 1-315): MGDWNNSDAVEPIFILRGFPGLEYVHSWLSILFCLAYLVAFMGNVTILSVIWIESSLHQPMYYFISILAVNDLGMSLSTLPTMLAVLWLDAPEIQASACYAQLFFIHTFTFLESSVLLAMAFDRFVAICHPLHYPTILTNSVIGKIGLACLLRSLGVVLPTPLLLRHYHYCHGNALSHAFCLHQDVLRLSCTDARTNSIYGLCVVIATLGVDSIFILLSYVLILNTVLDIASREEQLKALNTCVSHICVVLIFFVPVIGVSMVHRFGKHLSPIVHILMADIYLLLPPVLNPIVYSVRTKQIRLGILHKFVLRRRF
Briefly: Luciferase reporter gene assay, OR51L1 expressed in HEK293 cells. The conditions noted are these: for Inhibition ratio of OR51L1 response: response to hexanoic acid, test substance added together with hexanoic acid, HEK293. On the procedure: as §1, §2, §3, §4, §5

The next assay deals with T3, OR2W1 (Homo sapiens, UniProt Q9Y3N9).
T3 construct: expressed in transfected cells; host or cells: HEK293
T3 sequence (Q9Y3N9 1-320): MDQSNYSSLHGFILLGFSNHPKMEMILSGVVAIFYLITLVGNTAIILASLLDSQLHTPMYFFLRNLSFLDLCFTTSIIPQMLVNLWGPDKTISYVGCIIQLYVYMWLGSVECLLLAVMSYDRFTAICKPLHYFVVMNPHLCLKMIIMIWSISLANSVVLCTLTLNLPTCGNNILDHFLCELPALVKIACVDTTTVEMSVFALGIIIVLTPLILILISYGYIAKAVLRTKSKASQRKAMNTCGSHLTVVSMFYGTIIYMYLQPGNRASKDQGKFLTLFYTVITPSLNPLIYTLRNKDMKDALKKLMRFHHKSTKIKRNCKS
Put plainly: Luciferase reporter gene assay, OR2W1 expressed in HEK293 cells. The following applies: for Inhibition ratio of OR2W1 response: response to hexanoic acid, test substance added together with hexanoic acid, HEK293. On the procedure:
as §1, §2, §3, §4, §5

Where [1] appears, read: 1 mM hexanoic acid, test substance 3, 10, 30, 100, 300 μM (FIG. 4).

For the compound “2,4,6-trimethyl-3-cyclohexene-1-carboxyaldehyde, 3,5,6-trimethyl-3-cyclohexene-1-carboxyaldehyde [Isocyclocitral]”, the “Inhibition ratio of OR51E1 response” value at OR51E1 is 1 (Inhibition ratio: 50% or higher). Also, the “Inhibition ratio of OR51L1 response” value at OR51L1 is given as 1 (Inhibition ratio: 50% or higher). The “Inhibition ratio of OR2W1 response” value on OR2W1 is on record as 1 (Inhibition ratio: 50% or higher).

As for `CC(C)c1cccc(C(C)CC=O)c1` (stereo not drawn) [Florhydral, 3-(3-isopropylphenyl)-butyraldehyde], at OR51E1 (setting [1]), the “Inhibition of OR51E1 response to hexanoic acid (in words)” value is listed as “in a concentration-dependent manner”. In addition, the “Inhibition ratio of OR51E1 response” value at OR51E1 is 1 (Inhibition ratio: 50% or higher). In addition, the “Inhibition of OR51L1 response to hexanoic acid (in words)” value on OR51L1 (setting [1]) is given as “in a concentration-dependent manner”. In addition, on OR51L1, the “Inhibition ratio of OR51L1 response” value was 1 (Inhibition ratio: 50% or higher). Besides, the “Inhibition of OR2W1 response to hexanoic acid (in words)” value at OR2W1 (setting [1]) was “in a concentration-dependent manner”. The “Inhibition ratio of OR2W1 response” value on OR2W1 is 1 (Inhibition ratio: 50% or higher).
